Measurements reported in US8628961B2, “Small molecule antagonists of phosphatidylinositol-3,4,5-triphosphate (PIP3) and uses thereof” (Tufts University, priority 2010, dated 2014).

Assays:
[1] = target: PH domain of Akt (His6-Akt123) (Homo sapiens (Human), UniProt P31749); assay: NMR 2D HSQC binding analysis
Description: To further characterize the mode of action of PIT-1, NMR-based analyses of PIT-1 binding to the PH domain of Akt were performed. […] PIT-1 was further titrated to identify residues primarily affected by the small molecule binding. Using published Akt2 HSQC peak assignments (Auguin D et al. (2004) J Biomol NMR 28:137-55), it was observed that the residues Trp22 (W22), Tyr26 (Y26), and Asn54 (N54), located in the PIP3 binding pocket of the Akt PH domain, are primarily affected by PIT-1. Changes in other crosspeak signals were observed only at the 2× access of PIT-1.

[2] = tested on: PI3K/PDK1/Akt signaling pathway; assay: PIP3-dependent phosphorylation events in HUVEC, Western blotting; format: cell-based, human; conditions: 50, 100 and 200 μM, 2 hr, bFGF
Description: Endothelial cell migration plays a central role in tumor angiogenesis. Avraamides C J et al. (2008) Nat Rev Cancer 8:604-17. […] First, human umbilical vein endothelial cells (HUVEC) cells were serum starved overnight, and treated with different concentrations of PIT-1 (50, 100 and 200 μM) for 2 hr, followed by stimulation with 10 ng/ml bFGF for 15 min, and the PIP3-dependent phosphorylation events were evaluated by Western blotting.

[3] = tested on: PTEN-deficient U87MG cells; assay: Sytox cell death assay, U87MG re-expressing wild-type or R130M mutant PTEN; format: cell-based, human; conditions: 25, 50, 100 μM, 48 hr
Description: After treatment with 25, 50, or 100 μM PIT-1 for 48 hr, cell death was analyzed using Sytox cell death assay.
Based on the critical role of PIP3-dependent […] signaling in the regulation of cell survival, the effect of PIT-1 on the cancer cell viability was tested. Cancer cells were seeded into 96-well plates (white plates for ATP assay; black plates for fluorescent assay; clear plates for MTS assay) at the density of 5-10×10^3 cells per well in 100 μl of the appropriate media. Compounds were added at a series of concentrations and incubated for different times. For the ATP assay, a luminescence-based commercial kit (CellTiter-Glo, Promega, Madison, Wis.) was used. Thirty microliters of cell lysis/ATP detection reagent was added to each well, mixed for 10 min at room temperature, and the luminescence was measured using a Wallac Victor 3 plate reader (Perkin-Elmer, Wellesley, Mass.). […] Twenty microliters of the combined MTS/PMS solution was added into each well, incubated for 4 hr at 37° C., and the absorbance at 490 nm was measured using a Wallac Victor 3 plate reader. For the Sytox cell death assay, measuring loss of plasma membrane integrity, cells were incubated with 1 μM Sytox Green reagent (Molecular Probes, Eugene, Oreg.) for 30 min at 37° C. and the fluorescence intensity was measured using Wallac Victor 3 plate reader with excitation at 485 nm and emission at 545 nm. […]

U87MG cells = assay: Cell death with pan-caspase inhibitor zVAD.fmk, Sytox assay; format: cell-based, human; conditions: 100 μM zVAD.fmk
Description: FIG. 11 is a bar graph depicting that cell death triggered by PIT-1 alone or in combination with TRAIL is inhibited by pan-caspase inhibitor zVAD.fmk. U87MG cells were incubated with or without 100 μM zVAD.fmk together with PIT-1 (25, 50, 100 μM) in the presence or absence of 10 ng/ml TRAIL for 24 hr, and analyzed by Sytox cell death assay.
Since PI3K/PIP3/Akt signaling plays a critical role in the inhibition of apoptosis (Datta S R et al. (1999) Genes Dev 13:2905-27), the possibility that PITs induce apoptosis was examined. […] Proapoptotic Bcl-2 family members Bax and Bak are important mediators of apoptosis. Wei M C et al. (2001) Science 292:727-30. […] Non-apoptotic mechanisms of cell death may also play some additional, albeit less important, role in PIT-induced killing, as some cell death was still observed in Bax/Bak-deficient cells and in the presence of zVAD.fmk.

Rac1 = Rac1 activation pull-down (GST-Pak1-PBD), western blot; format: cell-based, human; conditions: SUM159, PDGF
Description: Rho/Rac family, especially Rac1, plays a critical role in actin polymerization, membrane ruffling/lamellipodia formation, and cell motility (Ridley A J et al. (1992) Cell 70:401-410) downstream of the GEFs, e.g., VAV family, and upstream of the WAVE family. The effect of PITs on Rac1 activation was therefore analyzed. SUM159 cells were seeded on 10 cm^2 plates and serum starved overnight, treated with different PIT compounds at a variety of concentrations for 2 hr, and then stimulated with 100 ng/ml PDGF for 15 min. Next, cells were rinsed once with PBS, and 1 ml lysis buffer (25 mM Tris-HCl, pH 7.5, 150 mM NaCl, 5 mM MgCl2, 1% NP-40, 1 mM DTT, 5% glycerol, 1 μg/ml aprotinin, 1 μg/ml leupeptin and 1 mM PMSF) was added per plate. The cells were scraped and transferred to a microcentrifuge tube, vortexed briefly, and incubated on ice for 5 min, followed by a centrifugation at 16,000×g at 4° C. for 15 min. The supernatant was collected. A sample of the lysate was used to ensure equal protein concentration in the samples. Next, 700 μl lysate, 20 μl glutathione-sepharose beads, and 20 μg GST-human Pak1-PBD were mixed together, and the reaction mixture was incubated at 4° C. for 1 hr with gentle rocking. The beads were then washed three times with lysis buffer, and proteins were eluted by boiling beads in 50 μl of the 2×SDS sample buffer at 95-100° C. for 5 min. […]

[4] = Solubility (aqueous, cell media); format: physicochemical
Description: The size of the DM-PIT-1-loaded micelles was about 15 nm with a narrow size distribution.

Chain of PH domain of Akt (His6-Akt123) (P31749 1-123): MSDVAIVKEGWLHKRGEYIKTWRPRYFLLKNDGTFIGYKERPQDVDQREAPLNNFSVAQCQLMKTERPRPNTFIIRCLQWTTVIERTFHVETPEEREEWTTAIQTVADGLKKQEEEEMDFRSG

O=C(NC(=S)Nc1cc([N+](=O)[O-])cc(Cl)c1O)c1ccccc1 [PIT-1]
changes in 2D HSQC 1H-15N correlation spectrum of His6-Akt123 [1]: induces significant changes | PI3K/PDK1/Akt signaling in HUVEC [2]: capable of blocking PI3K/PDK1/Akt signaling pathway | toxicity in U87MG lacking PTEN activity versus wild-type PTEN [3]: more pronounced in PTEN-deficient U87MG cells lacking PTEN activity | cell death, alone or with TRAIL, in presence of zVAD.fmk (U87MG cells): inhibited by a pan-caspase inhibitor zVAD.fmk | activation of Rac1 caused by growth factor stimulation (Rac1): efficiently suppressed the activation of Rac1 | aqueous solubility [4]: limited aqueous solubility
